Data reported in patent US8017557B2, “Benzodioxole derivatives as modulators of proteolytic activity in plants” (Endura S.p.A., priority 2002, dated 2011).
Read-outs that look alike come from different tables or passages of the source.

Experiments:
bromelain = bromelain (Ananas comosus, UniProt P14518); experiment: biochemical
Method: Reverse micelles assay of ISO-AOT 50 mM (AOT: twin aerosol (2-ethylhexylsodiumsulfosuccinate in isooctane (ISO)); Wo (H2O/AOT)=28
(§1) The assays were carried out in the reverse-micelles assay dispersed in organic solvent, described by Walde et al. in Eur. J. Biochem., 1988, 173:401-409, and already reported in the literature in kinetic studies of the inhibition of trypsin with natural and synthetic inhibitors. […]
(§2) The enzyme assay on reverse-micelle has been already described in the literature for the enzyme trypsin and was adapted to different enzymes. […] To this solution was added an appropriate volume of substrate CBZ (dissolved in acetonitrile/H2O, 80:20 (v/v) at a concentration of 15 mM) and following further agitation (the solution returned to being transparent), the change in absorbance was measured (Dabs) at 340 nm with a Cary 219 spectrophotometer.
(§3) The experimental data obtained are represented graphically in the form of Dixon-plot (described for example in: “Quantitative Problems in Biochemistry”, E A. Dawes, 5th ed. 1972 Baltimore, The Williams and Wilkins Company), in the FIGS. 1, 2 and 3.

[1] = tested on: peptidase activity in cotton plants; experiment: Photometric assay of peptidase activity with DL-BAPA as substrate in cotton plants; format: in vivo, cotton (cv. Sicala V2i); conditions: for Peptidase activity, PBO treated cv. V2i Bt: DL-BAPA substrate
Method: The photometric assay was carried out following the DL-BAPA hydrolysis at 410 nm. One peptidase unit (U) was defined as the amount of the enzyme, which produces one unit of absorbance variation at 410 nm/minute at pH 8.2 and 30° C. For each extract, the amount of soluble proteins in mg was determined by the Biuret method and the enzymatic activity was then expressed as specific activity i.e. Units/mg soluble proteins.
Each analysis was performed in duplicate or in triplicate and the standard deviation for each point is also indicated. Abscissa: time (days); ordinate: trypsin units/mg soluble protein.
The samples were collected at different development stages of plants, which were: […], 60 and 85 days after sowing. These samples were also analysed for determining the Bt content (as described in example 4). To this aim, the enzymatic activity was tested on crude freeze dried leaf extracts with two different assays: the Radial Diffusion Assay (RDA), in which a protein, such as the bovine gelatine, was used as a substrate to test the endopeptidase activity, and a photometric assay described in the next example, in which DL-BAPA was used as a substrate, to determine a general peptidase activity.
A powder aliquot, which represents each step of plant growth, of the treated and controls samples was extracted in two steps. The powder sample was extracted with buffer 0.1 M Tris-HCl pH 7.7 (1:20 w/v) using an Ultraturrax blender at 24,000×RPM for 2 min in a ice bath to avoid overheating. […] The clear supernatant was collected and filtrated with Whatman paper no 4. The pellet was further extracted with the same procedure, with the exception that in this case the extraction ratio was 1:10 (w/v). Finally, the supernatants of the two extractions processes were joined and then concentrated 4-5 times by centrifugation at 3,000×g at 15° C. for 2 hours, using suitable concentrators (Amicon Inc. Beverly, Mass.—USA), fitted with a membrane of 10 κD cut off.
For each extract, the amount of soluble proteins was determined by the Biuret method and the enzymatic activity was then expressed as specific activity i.e. Units/mg soluble proteins.
The photometric assay was carried out as described in Erlanger, B. F. et al. Arch. Biochem., 1961, 95: 271-278. In the assay is measured the absorbance variation due to DL-BAPA hydrolysis at 410 nm. The assay was performed mixing directly in the cuvette 20 μl of cotton crude extract with 980 μl of DL-BAPA in buffer 0.1 M Tris-HCl pH 8.2. One peptidase unit was defined as the amount of the enzyme which produces one unit of absorbance variation (410 nm) per minute at pH 8.2 and 30° C.
Each series of analysis was performed in duplicate or triplicate. […] In this figure is shown a maximum of peptidase activity around 60 days of development. […] A statistically significant inhibition is observed during the most part of the plant growing cycle. Finally, in table 7 is shown the specific activities of peptidase of treated and untreated Sicala V2i cotton samples. In this table it is also reported the activity differences in percentage between the treated and untreated samples.

ficin = conditions: Wo 25, HEPES pH 7.1, 30° C.
Method: Reverse micelles assay of ISO-AOT 50 mM (AOT: twin aerosol (2-ethylhexylsodiumsulfosuccinate in isooctane (ISO)); Wo (H2O/AOT)=25
as §1, §2, §3

Bt toxin (Cry1Ac) = tested on: Bt toxin (Cry1Ac)
Method: An immunoenzymatic assay was used to determine the Bt levels at different stages of plant development. • a) Measured Bt toxin values; ordinate: Bt expressed as ppm; abscissa: days of plant culture and where different, plant tissue.
The assay was carried out on samples collected at different plant development stages, which were: 4, 35, 60, 85 days after sowing.
The ELISA Cry1Ab/Cry1Ac Plate Kit was obtained from Envirologix (Portland, Maine—USA). The assay was performed according to the Envirologix protocol with the following modifications: • 1. The cotton freeze-dried powder got from leaf or cotyledon tissues was used instead of the fresh and whole leaf tissue. • 2. The Bt toxin extraction from the cotton freeze-dried powder was done with a sample/buffer ratio of 1:25 (w/v). • 3. The extraction was made leaving the sample in the buffer for at least 4 hours at room temperature, instead of using the Envirologix Disposable Tissue Extractor. The extract was then clarified by centrifugation at 5,000×g for 5 min at room temperature.
Cotton seeds of the cv. Sicala V2i were previously rinsed in distilled water and then placed in equal number in suitable plastic boxes containing settled and sterile sand. Seeds were watered with equal volumes of distilled water and the culture boxes were then covered with a plastic film to avoid evaporation during germination, which was carried out in the dark for 4 days at 30° C. […] After 4 days, these sprouts were collected for testing, whereas the other sprouts were moved in suitable pots and located in the greenhouse at 24° C. during the day and 20° C. in the night.
Treatments were given out vaporizing the diluted formulation on the plants taking care to treat both leaves sides.
Two days after each treatment, a sample of the treated plants, and the correspondent controls, were collected and all leaves were frozen in liquid nitrogen and freeze dried. After this process, the material was powdered in a pestle and then stored in a dry box at room temperature.

[2] = Growth stage 4 days (plantlets)
[3] = Growth stage 35 days (cotyledons)

bromelain, sequence (P14518 whole entry): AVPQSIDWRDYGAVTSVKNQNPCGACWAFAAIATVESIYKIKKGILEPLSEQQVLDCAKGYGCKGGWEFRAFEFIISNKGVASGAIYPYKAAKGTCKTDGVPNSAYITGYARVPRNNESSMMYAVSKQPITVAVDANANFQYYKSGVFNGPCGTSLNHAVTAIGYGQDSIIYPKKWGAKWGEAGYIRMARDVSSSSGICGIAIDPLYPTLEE

`CCCCOCCOCCOCc1cc2c(cc1CCC)OCO2` [PBO, 5-[[2-(2-Butoxyethoxy)ethoxy]methyl]-6-propyl-1,3-benzodioxole] was tested, and the IC50 (bromelain) was 400 µM, the Ki (bromelain) was 100 µM and the “Difference % Treated minus untreated (peptidase, DL-BAPA)” value (from here on “Difference % Treated minus untreated”) ([1]; 4 days after sowing) was 4.99%. For the same compound, the “Peptidase activity, PBO treated cv. V2i Bt” value (“Peptidase activity” for short) ([1]; 4 days after sowing) was 5.21 U/mg of soluble protein × 10^−2, the “Difference % Treated minus untreated” value ([1]; 35 days after sowing) was −23.54% and the “Peptidase activity” value ([1]; 35 days after sowing) was 9.43 U/mg of soluble protein × 10^−2. For the same compound, the “Difference % Treated minus untreated” value ([1]; 60 days after sowing) was −25.55%, the “Peptidase activity” value ([1]; 60 days after sowing) was 13.62 U/mg of soluble protein × 10^−2 and the “Difference % Treated minus untreated” value ([1]; 85 days after sowing) was 18.68%. For the same compound, the “Peptidase activity” value ([1]; 85 days after sowing) was 12.42 U/mg of soluble protein × 10^−2, the IC50 (ficin; read-out: IC50 of PBO on ficin, evaluated from Dixon plot) was 800 µM and the Ki (ficin; read-out: inhibition constant (KI) of PBO on the enzyme ficin, Dixon plot, substrate CBZ 1.5×10^−4 M and 6×10^−5 M) was 450 µM. For the same compound, the “Bt content in PBO-treated samples vs untreated” value (Bt toxin (Cry1Ac); 35, 60, 85 days after planting) was “significant lower Bt content”, the “Bt content in PBO-treated samples vs untreated” value (Bt toxin (Cry1Ac); 4 days) was “no difference” and the “%: treated − control (Cry1Ac)” value (Bt toxin (Cry1Ac); [2]) was −4.823%. For the same compound, the “Cry1Ac ppm, cv V2i PBO treated” value (Bt toxin (Cry1Ac); [2]) was 44.60 ppm, the “Δ: treated − control (Cry1Ac)” value (Bt toxin (Cry1Ac); [2]) was −2.26 ppm and the “%: treated − control (Cry1Ac)” value (Bt toxin (Cry1Ac); [3]) was 9.149%. The “Cry1Ac ppm, cv V2i PBO treated” value (Bt toxin (Cry1Ac); [3]) was 66.57 ppm, the “Δ: treated − control (Cry1Ac)” value (Bt toxin (Cry1Ac); [3]) was 5.58 ppm and the “%: treated − control (Cry1Ac)” value (Bt toxin (Cry1Ac); Growth stage 35 days (leaves)) was 38.356%. For the same compound, the “Cry1Ac ppm, cv V2i PBO treated” value (Bt toxin (Cry1Ac); Growth stage 35 days (leaves)) was 45.45 ppm, the “Δ: treated − control (Cry1Ac)” value (Bt toxin (Cry1Ac); Growth stage 35 days (leaves)) was 12.6 ppm and the “%: treated − control (Cry1Ac)” value (Bt toxin (Cry1Ac); Growth stage 60 days (leaves)) was 16.629%. For the same compound, the “Cry1Ac ppm, cv V2i PBO treated” value (Bt toxin (Cry1Ac); Growth stage 60 days (leaves)) was 31.07 ppm, the “Δ: treated − control (Cry1Ac)” value (Bt toxin (Cry1Ac); Growth stage 60 days (leaves)) was 4.43 ppm and the “%: treated − control (Cry1Ac)” value (Bt toxin (Cry1Ac); Growth stage 85 days (leaves)) was 13.236%. The “Cry1Ac ppm, cv V2i PBO treated” value (Bt toxin (Cry1Ac); Growth stage 85 days (leaves)) was 31.91 ppm, the “Δ: treated − control (Cry1Ac)” value (Bt toxin (Cry1Ac); Growth stage 85 days (leaves)) was 3.73 ppm and the “amount of transgenic toxin after PBO treatment” value (Bt toxin (Cry1Ac); cotton transgenic for the Bt CryI protein) was “higher than in transgenic untreated plants”.
